How the values were obtained:
Caco-2 permeability test = type: in vitro ADME; settings: human, Caco-2, pH 7.4
Method: (§1) • 1. Prewarm HBSS Buffer in 37° C. water bath • 2. Take compounds from −20° C., sonicate for a few minutes (no less than 1 minute) • 3. Solution preparation
(§2) For A-to-B direction: • HBSS buffer with 0.3% DMSO and 5 μM LY: add 150 μL DMSO and 50 μL LY (5 mM) into 50 ml HBSS buffer (pH7.4). • HBSS buffer with 0.1% DMSO and 5 μM LY: add 50 μL DMSO and 50 μL LY (5 mM) into 50 mL HBSS buffer (pH7.4).
(§3) For B-to-A direction: • HBSS buffer with 0.3% DMSO: add 150 μL DMSO into 50 ml HBSS buffer (pH7.4) • HBSS buffer with 0.1% DMSO: add 50 μL DMSO into 50 ml HBSS buffer (pH7.4).
(§4) Receiver Solution Buffer:
(§5) Prepare HBSS buffer with 0.4% DMSO: add 200 μL DMSO into 50 ml HBSS buffer (pH7.4).
(§6) For B-to-A direction: • Prepare HBSS buffer with 0.4% DMSO and 5 uM LY: add 200 μL DMSO and 50 μL LY (5 mM) into 50 ml HBSS buffer (pH7.4).
(§7) Take cell culture plate out of incubator, wash the cell monolayers with HBSS buffer, and then measure TEER values at Rm temperature. • 5. Centrifuge the compound solution (from step 3) at 4000 rpm for 5 min before loading to donor chambers. • 6. Add solution based on the volumes listed in the following table (make sure to take extra 100 uL of donor sample for T0 as Backup).
(§8) • 7. To determine LY concentration in the apical chamber, take 100 μL sample from apical chambers into an opaque plate for LYT0. • 8. Prewarm apical and basolateral plates at 37° C. for about 5 min, then begin transport by placing the apical plate onto basolateral plate. • 9. Keep the plates in incubator at 37° C. for 90 min • 10. Prepare 20× solution
(§9) • 11. Separate the apical plate from the basolateral plate after 90-min incubation. • 12. Take 100 μL samples from basolateral plate to an opaque plate as LYT90. • 13. Measure LY concentrations for LYT0 and LYT90 by Fluorometer (at excitation of 485 nm/emission of 535 nm). • 14. Sample preparation for LC-MS/MS: Donor or receiver samples are diluted by 0.4% DMSO HBSS, then mix with ACN with IS (Osalmid or Imipramine)

Caco-2 = Caco-2 permeability test; type: in vitro ADME; settings: Caco-2
Method: as §1, §2, §3, §4, §5, §6, §7, §8, §9

RIP2 kinase = RIP2 kinase (Homo sapiens (Human), UniProt O43353); assay: Binding affinity assay (Kd)
Method: For most assays, kinase-tagged T7 phage strains were prepared in an E. coli host derived from the BL21 strain. E. coli were grown to log-phase and infected with T7 phage and incubated with shaking at 32° C. until lysis. The lysates were centrifuged and filtered to remove cell debris. The remaining kinases were produced in HEK-293 cells and subsequently tagged with DNA for qPCR detection. Streptavidin coated magnetic beads were treated with biotinylated small molecule ligands for 30 minutes at room temperature to generate affinity resins for kinase assays. The liganded beads were blocked with excess biotin and washed with blocking buffer (SeaBlock (Pierce), 1% BSA, 0.05% Tween 20, 1 mM DTT) to remove unbound ligand and to reduce non-specific binding. Binding reactions were assembled by combining kinases, liganded affinity beads, and test compounds in 1× binding buffer (20% SeaBlock, 0.17×PBS, 0.05% Tween 20, 6 mM DTT). Test compounds were prepared as 111× stocks in 100% DMSO. Kds were determined using an 11-point 3-fold compound dilution series with three DMSO control points. All compounds for Kd measurements are distributed by acoustic transfer (non-contact dispensing) in 100% DMSO. The compounds were then diluted directly into the assays such that the final concentration of DMSO was 0.9%. All reactions performed in polypropylene 384-well plate. Each was a final volume of 0.02 ml. The assay plates were incubated at room temperature with shaking for 1 hour and the affinity beads were washed with wash buffer (1×PBS, 0.05% Tween 20). The beads were then re-suspended in elution buffer (1×PBS, 0.05% Tween 20, 0.5 μM nonbiotinylated affinity ligand) and incubated at room temperature with shaking for 30 minutes. The kinase concentration in the eluates was measured by qPCR.
An 11-point 3-fold serial dilution of each test compound was prepared in 100% DMSO at 100× final test concentration and subsequently diluted to 1× in the assay (final DMSO concentration=1%). Most Kds were determined using a compound top concentration=30,000 nM. If the initial Kd determined was <0.5 nM (the lowest concentration tested), the measurement was repeated with a serial dilution starting at a lower top concentration.
Binding constants (Kds) were calculated with a standard dose-response curve using the Hill equation: […]
The Hill Slope was set to −1.
Curves were fitted using a non-linear least square fit with the Levenberg-Marquardt algorithm.

[1] = Metabolic stability test, HLM; type: in vitro ADME; settings: human, liver microsomes; for CLint scaled at 1 μM: pH 7.4, read-out: Cl (mL/min/kg) HLM; for half-life at 1 μM: pH 7.4, read-out: T1/2 (min) HLM
Method: • 1. Buffers: • Buffer A: 1.0 L of 0.1 M monobasic Potassium Phosphate buffer containing 1.0 mM EDTA • Buffer B: 1.0 L of 0.1 M Dibasic Potassium Phosphate buffer containing 1.0 mM EDTA • Buffer C: 0.1 M Potassium Phosphate buffer, 1.0 mM EDTA, pH 7.4 by titrating 700 mL of buffer B with buffer A while monitoring with the pH meter. • 2. Reference compounds (Ketanserin) and test compounds spiking solution: • 500 μM spiking solution: add 10 μL of 10 mM DMSO stock solution into 190 μL ACN. • 1.5 μM spiking solution in microsomes (0.75 mg/mL): add 1.5 μL of 500 μM spiking solution and 18.75 μL of 20 mg/mL liver microsomes into 479.75 μL of Buffer C on ice. • 3. Prepare NADPH stock solution (6 mM) by dissolving NADPH into buffer C. • 4. Dispense 30 μL of 1.5 μM spiking solution containing 0.75 mg/mL microsomes solution to the assay plates designated for different time points (0-, 5-, 15-, 30-, 45-min) on ice. • 5. For 0-min time point, add 135 μL of ACN containing IS to the wells of 0-min plate and then add 15 μL of NADPH stock solution (6 mM). • 6. Pre-incubate all other plates at 37° C. for 5 minutes. • 7. Add 15 μL of NADPH stock solution (6 mM) to the plates to start the reaction and timing. • 8. At 5-min, 15-min, 30-min, and 45-min, add 135 μL of ACN containing IS to the wells of corresponding plates, respectively, to stop the reaction. • 9. After quenching, shake the plates at the vibrator (IKA, MTS 2/4) for 10 min (600 rpm/min) and then centrifuge at 5594 g for 15 min (ThermoMultifuge×3R). • 10. Transfer 50 μL of the supernatant from each well into a 96-well sample plate containing 50 μL of ultra pure water (Millipore, ZMQS50F01) for LC/MS analysis.

[2] = efflux ratio, read-out: Caco-2 Permeability B-A/A-B

RIP2 kinase, sequence (O43353 whole entry): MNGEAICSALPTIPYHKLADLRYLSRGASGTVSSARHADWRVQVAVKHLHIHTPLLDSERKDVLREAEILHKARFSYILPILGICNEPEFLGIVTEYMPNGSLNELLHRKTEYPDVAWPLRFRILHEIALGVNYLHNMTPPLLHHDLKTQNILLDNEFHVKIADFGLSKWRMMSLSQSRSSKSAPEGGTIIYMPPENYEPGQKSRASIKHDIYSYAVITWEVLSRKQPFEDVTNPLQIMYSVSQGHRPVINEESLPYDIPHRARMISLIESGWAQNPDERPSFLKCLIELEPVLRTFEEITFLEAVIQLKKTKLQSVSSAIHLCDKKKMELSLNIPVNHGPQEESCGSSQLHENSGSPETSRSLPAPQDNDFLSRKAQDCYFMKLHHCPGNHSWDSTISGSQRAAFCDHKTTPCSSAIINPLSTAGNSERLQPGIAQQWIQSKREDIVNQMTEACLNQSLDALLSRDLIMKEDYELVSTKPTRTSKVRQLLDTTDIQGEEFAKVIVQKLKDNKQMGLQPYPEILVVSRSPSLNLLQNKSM

SMILES | Papp A→B at 90 min (Caco-2 permeability test; A-B) [×10⁻⁶ cm/s] | Papp B→A at 90 min (Caco-2 permeability test; B-A) [×10⁻⁶ cm/s] | efflux ratio at 90 min (Caco-2 permeability test; [2]) | efflux (in words) (Caco-2) | permeability (in words) (Caco-2) | Kd (RIP2 kinase) [nM] | CLint scaled at 1 μM [1] [mL/min/kg] | half-life at 1 μM [1] [min] | Papp A→B at 90 min, 2 μM (Caco-2 permeability test; A-B, test at 2 μM) [×10⁻⁶ cm/s] | Papp B→A at 90 min, 2 μM (Caco-2 permeability test; B-A, test at 2 μM) [×10⁻⁶ cm/s] | efflux ratio at 90 min, 2 μM (Caco-2 permeability test; efflux ratio, test at 2 μM, read-out: Caco-2 Permeability B-A/A-B)
COc1cc2nccc(Nc3ccc4scnc4c3)c2cc1P(C)(C)=O [A6] | 15.2 | 33 | 2.18 | no obvious efflux | high permeability | 3.1 | 2.97 | 586 | – | – | –
CP(C)(=O)c1cc2c(Nc3ccc4scnc4c3)ccnc2cc1OCCO [A7, (4-(benzo[d]thiazol-5-ylamino)-7-(2-hydroxyethoxy)quinolin-6-yl)dimethylphosphine oxide] | 0.5 | 10.2 | 20.5 | – | low | 5.8 | 4.13 | 421 | – | – | –
COCCOc1cc2nccc(Nc3ccc4scnc4c3)c2cc1P(C)(C)=O [A8] | 11.9 | 35.6 | 2.98 | efflux substrate | favorable permeability | 2 | 15.9 | 109 | – | – | –
CC1(COc2cc3nccc(Nc4ccc5scnc5c4)c3cc2P(C)(C)=O)COC1 [A9] | 7.85 | 46.5 | 5.92 | – | moderate | 2.1 | 33.5 | 52 | – | – | –
CP(C)(=O)c1cc2c(Nc3ccc4scnc4c3)ccnc2cc1O[C@H]1CCOC1 [A14] | 7 | 35.9 | 5.13 | – | moderate | 3 | 22.9 | 75.8 | – | – | –
CP(C)(=O)c1cc2c(Nc3ccc4scnc4c3)ccnc2cc1O[C@@H]1CCOC1 [A15] | 5.36 | 35 | 6.53 | – | moderate | 3 | 19.6 | 88.6 | – | – | –
CP(C)(=O)c1cc2c(Nc3ccc4scnc4c3)ccnc2cc1OC1COC1 [A16] | 2.16 | 31.1 | 14.4 | – | low | 3.8 | 9.98 | 174 | – | – | –
CP(C)(=O)c1cc2c(Nc3ccc4scnc4c3)ccnc2cc1OC(F)(F)F [A24] | – | – | – | no obvious efflux | high permeability | 5.2 | – | – | 16.9 | 26.6 | 1.58
